According to patent publication US20090233796A1, “HERBICIDAL COMPOSITION” (SYNGENTA CROP PROTECTION, INC., priority 2004, published 2009):

How the values were obtained:
Format in all cases: in vivo
CONYZA SP. = assay: Compound (A) with paraquat, weed plots; settings: 5 DAA
Method: (§1) In these tests, various weeds were treated with paraquat alone at rates equivalent to 700 g per hectare and 840 g per hectare, compound (A) alone at rates equivalent to 10 g per hectare and 20 g per hectare, and with a mixture of paraquat and compound (A) at rates equivalent to the sum of these. The compositions were formulated as an emulsifyable concentrate (EC).
(§2) The results in the table under each application are the percentage of the weeds plants that were killed.

CYPERUS ROTUNDUS = assay: Compound (A) with paraquat, weed plots; settings: 56 DAA, No. 1.11
Method: as §1, §2

DIGITARIA CILIARIS = assay: Compound (A) with paraquat, weed plots; settings: 20 g/ha; 51 DAA; No. 1.7
Method: as §1, §2

E[…]-GALLI [1] = assay: Compound (A) with paraquat, weed plots; settings: 51 DAA, No. 1.8
Method: as §1, §2

LAMIUM PURPUREUM = assay: Compound (A) with paraquat, weed plots; settings: 2 DAA, No. 1.5
Method: as §1, §2

LOLIUM RIGIDUM = assay: Compound (A) with paraquat, weed plots; settings: 41 DAA, No. 1.4
Method: as §1, §2

SETARIA SP. = assay: Compound (A) with paraquat, weed plots; settings: 27 DAA, No. 1.2
Method: as §1, §2

SETARIA VIRIDIS = assay: Compound (A) with paraquat, weed plots; settings: 43 DAA, No. 1.3
Method: as §1, §2

SONCHUS ASPER = assay: Compound (A) with paraquat, weed plots; settings: 32 DAA, No. 1.10
Method: as §1, §2

VERONICA PERSICA = assay: Compound (A) with paraquat, weed plots; settings: 69 DAA, No. 1.6
Method: as §1, §2

STELLARIA MEDIA = assay: Compound (A) with triasulfuron, weed plots; settings: 10 g per hectare; 30 DAA; No. 3.1
Method: In these tests, various weeds were treated with triasulfuron alone at a rate equivalent to 26 g per hectare, Compound (A) alone at a rate equivalent to 10 g per hectare, and to a mixture of triasulfuron and Compound (A) at rates equivalent to the sum of these. The compositions were formulated as an emulsifyable concentrate (EC).
(§3) The results in the table under each application are the percentage of the plants that were killed.

COMMELINA SP. = assay: Compound (A) with nicosulfuron, weed plots
Text: In these tests, […] and Compound (A) at rates equivalent to the sum of these. The compositions were formulated as an emulsifyable concentrate (EC).
as §3

Euphorbia = assay: Compound (A) with primisulfuron, weed plots; settings: 45 DAA, Trial 3.20
Text: (§4) In these tests, […] and Compound (A) at rates equivalent to the sum of these. The compositions were formulated as an emulsifiable concentrate (EC).
(§5) The results in the tables under each application are the percentage of the plants that were killed.

Corn = assay: Compound (A) with prosulfuron, weed plots; settings: 13 DAA, No. 3.26
Text: as §4, §5

Galium = assay: Compound (A) with prosulfuron, weed plots; settings: 13 DAA, No. 3.24
Text: as §4, §5

AMBROSIA ARTEMISIIFOLIA = assay: Compound (A) with S-metolachlor, weed plots
Method: (§6) In these tests, various weeds were treated with S-metolachlor (SMOC) alone at an application rate equivalent to 1420 g per hectare, Compound (A) alone at rates equivalent to 20 g per hectare and […] and with mixtures of S-metolachlor and the Compound (A) at rates equivalent to the sum of these. The compositions were formulated as an emulsifyable concentrate (EC).
as §3

AMBROSIA TRIFIDA = assay: Compound (A) with S-metolachlor, weed plots
Method: as §6, §3

E[…]-GALLI [2] = assay: Compound (A) with S-metolachlor, weed plots; settings: 28 DAA, Trial 4.1
Method: as §6, §3

POLYGONUM PENSYLVANICUM = assay: Compound (A) with S-metolachlor, weed plots; settings: 56 DAA, Trial 4.14
Method: as §6, §3

SESBANIA EXALTATA = assay: Compound (A) with S-metolachlor, weed plots; settings: 56 DAA, Trial 4.2
Method: as §6, §3

XANTHIUM STRUMARIUM = assay: Compound (A) with S-metolachlor, weed plots
Method: as §6, §3

For `CCOC(=O)COc1ncccc1Oc1cc(-n2c(=O)cc(C(F)(F)F)n(C)c2=O)c(F)cc1Cl` [Compound (A)], the “percentage of the weeds plants that were killed” value (CONYZA SP.; 10 g/ha, No. 1.1) was 37%, the “percentage of the weeds plants that were killed” value (CONYZA SP.; 10 g/ha, No. 1.9) was 37% and the “percentage of the weeds plants that were killed” value (CONYZA SP.; 20 g/ha, No. 1.1) was 40%. The “percentage of the weeds plants that were killed” value (CONYZA SP.; 20 g/ha, No. 1.9) was 40%, the “percentage of the weeds plants that were killed” value (CYPERUS ROTUNDUS; 10 g/ha) was 0% and the “percentage of the weeds plants that were killed” value (CYPERUS ROTUNDUS; 20 g/ha) was 0%. For the same molecule, the “percentage of the weeds plants that were killed” value (DIGITARIA CILIARIS) was 0%, the “percentage of the weeds plants that were killed” value (E[…]-GALLI [1]; 10 g/ha) was 0% and the “percentage of the weeds plants that were killed” value (E[…]-GALLI [1]; 20 g/ha) was 0%. The “percentage of the weeds plants that were killed” value (LAMIUM PURPUREUM; 10 g/ha) was 30%, the “percentage of the weeds plants that were killed” value (LAMIUM PURPUREUM; 20 g/ha) was 33% and the “percentage of the weeds plants that were killed” value (LOLIUM RIGIDUM; 10 g/ha) was 27%. The “percentage of the weeds plants that were killed” value (LOLIUM RIGIDUM; 20 g/ha) was 47%, the “percentage of the weeds plants that were killed” value (SETARIA SP.; 10 g/ha) was 0% and the “percentage of the weeds plants that were killed” value (SETARIA SP.; 20 g/ha) was 25%. The “percentage of the weeds plants that were killed” value (SETARIA VIRIDIS; 10 g/ha) was 0%, the “percentage of the weeds plants that were killed” value (SETARIA VIRIDIS; 20 g/ha) was 23% and the “percentage of the weeds plants that were killed” value (SONCHUS ASPER; 10 g/ha) was 60%. The “percentage of the weeds plants that were killed” value (SONCHUS ASPER; 20 g/ha) was 55%, the “percentage of the weeds plants that were killed” value (VERONICA PERSICA; 10 g/ha) was 25% and the “percentage of the weeds plants that were killed” value (VERONICA PERSICA; 20 g/ha) was 100%. For the same molecule, the “percentage of the plants that were killed” value (STELLARIA MEDIA) was 63%, the “percentage of the plants that were killed” value (COMMELINA SP.; 5 g/ha, 10 DAA, No. 3.18) was 30% and the “percentage of the plants that were killed” value (COMMELINA SP.; 5 g/ha, 17 DAA, No. 3.19) was 20%. The “percentage of the plants that were killed” value (COMMELINA SP.; 10 g/ha, 10 DAA, No. 3.18) was 50%, the “percentage of the plants that were killed” value (COMMELINA SP.; 10 g/ha, 17 DAA, No. 3.19) was 30% and the “percentage of the plants that were killed” value (COMMELINA SP.; 20 g/ha, 10 DAA, No. 3.18) was 58%. The “percentage of the plants that were killed” value (COMMELINA SP.; 20 g/ha, 17 DAA, No. 3.19) was 50%, the “percentage of the plants that were killed” value (Euphorbia; 1.25 g/ha) was 50% and the “percentage of the plants that were killed” value (Euphorbia; 2.5 g/ha) was 70%. The “percentage of the plants that were killed” value (Euphorbia; 5 g/ha) was 70%, the “percentage of the plants that were killed” value (Corn; 1.25 g/ha) was 70% and the “percentage of the plants that were killed” value (Corn; 2.5 g/ha) was 90%. The “percentage of the plants that were killed” value (Corn; 5 g/ha) was 98%, the “percentage of the plants that were killed” value (Galium; 1.25 g/ha) was 50% and the “percentage of the plants that were killed” value (Galium; 2.5 g/ha) was 50%. For the same molecule, the “percentage of the plants that were killed” value (Galium; 5 g/ha) was 100%, the “percentage of the plants that were killed” value (AMBROSIA ARTEMISIIFOLIA; 20 g/ha, 25 DAA, Trial 4.7) was 47% and the “percentage of the plants that were killed” value (AMBROSIA ARTEMISIIFOLIA; 20 g/ha, 49 DAA, Trial 4.8) was 30%. For the same molecule, the “percentage of the plants that were killed” value (AMBROSIA ARTEMISIIFOLIA; 40 g/ha, 25 DAA, Trial 4.7) was 79%, the “percentage of the plants that were killed” value (AMBROSIA ARTEMISIIFOLIA; 40 g/ha, 49 DAA, Trial 4.8) was 69% and the “percentage of the plants that were killed” value (AMBROSIA TRIFIDA; 20 g/ha, 8 DAA, Trial 4.16) was 75%. The “percentage of the plants that were killed” value (AMBROSIA TRIFIDA; 20 g/ha, 42 DAA, Trial 4.15) was 23%, the “percentage of the plants that were killed” value (AMBROSIA TRIFIDA; 40 g/ha, 8 DAA, Trial 4.16) was 95% and the “percentage of the plants that were killed” value (AMBROSIA TRIFIDA; 40 g/ha, 42 DAA, Trial 4.15) was 38%. The “percentage of the plants that were killed” value (E[…]-GALLI [2]; 20 g/ha) was 53%, the “percentage of the plants that were killed” value (E[…]-GALLI [2]; 40 g/ha) was 55% and the “percentage of the plants that were killed” value (POLYGONUM PENSYLVANICUM; 20 g/ha) was 0%. The “percentage of the plants that were killed” value (POLYGONUM PENSYLVANICUM; 40 g/ha) was 13%, the “percentage of the plants that were killed” value (SESBANIA EXALTATA; 20 g/ha) was 50% and the “percentage of the plants that were killed” value (SESBANIA EXALTATA; 40 g/ha) was 25%. For the same molecule, the “percentage of the plants that were killed” value (XANTHIUM STRUMARIUM; 20 g/ha, 26 DAA, Trial 4.17) was 25%, the “percentage of the plants that were killed” value (XANTHIUM STRUMARIUM; 20 g/ha, 42 DAA, Trial 4.18) was 23% and the “percentage of the plants that were killed” value (XANTHIUM STRUMARIUM; 40 g/ha, 26 DAA, Trial 4.17) was 73%. The “percentage of the plants that were killed” value (XANTHIUM STRUMARIUM; 40 g/ha, 42 DAA, Trial 4.18) was 68%.
